Reference: patent publication US12138320B2, “Composition and methods for tumor imaging and treatment” (The University of Chicago, priority 2020, dated 2024)

Assays:
[1] = tested on: other detected serine hydrolase targets; assay: Family-wide gel-based profiling of serine hydrolases in MDA-MB231 and PC3 cells (selectivity); format: cell-based, human; settings: live cells
Procedure: Proteome Preparation: Human PC3 and MDA-MB231 cells were grown in Roswell Park Memorial Institute (RPMI) medium and Dulbecco's Modified Eagle Medium (DMEM), respectively, supplemented with 10% fetal bovine serum (FBS) and 2 mM L-glutamine, and cultured in a humidified 5% CO2 incubator at 37° C. Cells were washed twice with phosphate buffered saline (PBS, pH 7.5), collected by scraping, resuspended in 0.2 ml PBS, sonicated, and fractionated via centrifugation (100,000×g, 45 min) into a pellet (containing membrane proteins) and supernatant (containing soluble proteins). […] Protein concentrations were determined using a Bradford protein assay kit (Bio-Rad, Hercules, California, United States of America)). […]
Gel-based Activity Profiling: Cell lysates were treated with 1 μM fluorophosphonate-rhodamine (FP-rho) for 30 min at room temperature (50 μL total reaction volume). Reactions were quenched with one volume of standard 4× sodium dodecyl sulfate/polyacrylamide gel electrophoresis (SDS/PAGE) reducing sample buffer, resolved on 10% acrylamide SDS/PAGE gels, and visualized in-gel with a fluorescence scanner sold under the tradename CHEMIDOC™ MP (Bio-Rad, Hercules, California, United States of America). Densitometric quantification of band intensities were used to calculate the percent inhibition via JW199. […]

NCEH1 [2] = target: T1, NCEH1 (Homo sapiens, UniProt Q6PIU2); assay: Gel-based competitive ABPP (FP-Rho) of cancer cells treated in situ (live cells); format: cell-based; settings: for potency against NCEH1 compared to JW199: MDA-MB231 cells treated in situ, 0-25 μM (FIG. 5B)
T1 construct: serine hydrolase activity in membrane proteome fractions of MDA-MB231 breast cancer cells treated with the indicated concentrations; endogenous in cells; host or cells: PC3 prostate cancer cells; MDA-MB231 breast cancer cells
T1 sequence (Q6PIU2 1-408): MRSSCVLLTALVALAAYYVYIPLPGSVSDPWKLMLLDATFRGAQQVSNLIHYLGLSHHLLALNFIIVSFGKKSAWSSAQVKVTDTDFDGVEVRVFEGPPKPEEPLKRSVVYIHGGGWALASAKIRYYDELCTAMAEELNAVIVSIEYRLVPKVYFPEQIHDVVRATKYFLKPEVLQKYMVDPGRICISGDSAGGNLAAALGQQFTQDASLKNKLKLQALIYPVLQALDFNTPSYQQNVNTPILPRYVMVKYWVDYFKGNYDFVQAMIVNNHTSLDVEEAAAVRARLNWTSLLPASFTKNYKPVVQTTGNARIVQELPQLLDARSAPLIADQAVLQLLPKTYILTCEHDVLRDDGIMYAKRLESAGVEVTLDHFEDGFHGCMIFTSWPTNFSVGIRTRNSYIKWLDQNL
Procedure: Proteome Preparation: Human PC3 and MDA-MB231 cells were grown in Roswell Park Memorial Institute (RPMI) medium and Dulbecco's Modified Eagle Medium (DMEM), respectively, supplemented with 10% fetal bovine serum (FBS) and 2 mM L-glutamine, and cultured in a humidified 5% CO2 incubator at 37° C. Cells were washed twice with phosphate buffered saline (PBS, pH 7.5), collected by scraping, resuspended in 0.2 ml PBS, sonicated, and fractionated via centrifugation (100,000×g, 45 min) into a pellet (containing membrane proteins) and supernatant (containing soluble proteins). For murine proteomes, mouse tissues were Dounce-homogenized on ice in cold PBS, followed by a low-speed spin (1,400×g, 5 min) to remove debris. After sonication, the membrane and soluble proteomes were fractionated as described above. All sample pellets were washed and resuspended in PBS via sonication. Protein concentrations were determined using a Bradford protein assay kit (Bio-Rad, Hercules, California, United States of America)). Samples were stored at −80° C. until use.
Cellular JW199 Treatments: JW199 was dissolved in dimethyl sulfoxide (DMSO) vehicle, which was diluted into media or buffer before addition to cells or proteomes, respectively. For in vitro proteome experiments, the final DMSO concentration was 4%. For live cell (in situ) treatments, 2×10^6 cells were seeded in 6 cm dishes (100% confluency) 24 hours prior to JW199 treatment in serum-free media. At the end of the experiment, cells were washed and collected, as described above, for gel-based activity profiling.
Gel-based Activity Profiling: Cell lysates were treated with 1 μM fluorophosphonate-rhodamine (FP-rho) for 30 min at room temperature (50 μL total reaction volume). Reactions were quenched with one volume of standard 4× sodium dodecyl sulfate/polyacrylamide gel electrophoresis (SDS/PAGE) reducing sample buffer, resolved on 10% acrylamide SDS/PAGE gels, and visualized in-gel with a fluorescence scanner sold under the tradename CHEMIDOC™ MP (Bio-Rad, Hercules, California, United States of America). Densitometric quantification of band intensities were used to calculate the percent inhibition via JW199. 50% inhibitory concentration (IC50) values were determined from dose-response curves constructed in GraphPad Prism software from three independent replicates for each inhibitor concentration. For competitive ABPP with JW576, tumor lysates were treated with 1 μM JW576 for 30 min at 37° C. (50 μL total reaction volume). Competitive ABPP was then conducted as described above. NCEH1 activity was calculated by densitometric quantification (ImageJ software; National Institutes of Health (NIH), Bethesda, Maryland, United States of America) of JW576-labeled band intensity (BODIPY fluorescence) from three independent replicates.

NCEH1 [3] = target: T2, NCEH1 (Mus musculus, UniProt Q8BLF1); assay: Gel-based competitive ABPP of murine tissue membrane proteomes after JW480 pre-treatment; format: in vivo; settings: JW480 80 mg/kg; brain, heart, kidney, lung, liver, spleen membrane proteomes
T2 construct: For murine proteomes, mouse tissues were Dounce-homogenized on ice in cold PBS; from tissue; host or cells: athymic nude mice: heart, kidney, lung, liver, brain, spleen and other organs
T2 sequence (Q8BLF1 1-408): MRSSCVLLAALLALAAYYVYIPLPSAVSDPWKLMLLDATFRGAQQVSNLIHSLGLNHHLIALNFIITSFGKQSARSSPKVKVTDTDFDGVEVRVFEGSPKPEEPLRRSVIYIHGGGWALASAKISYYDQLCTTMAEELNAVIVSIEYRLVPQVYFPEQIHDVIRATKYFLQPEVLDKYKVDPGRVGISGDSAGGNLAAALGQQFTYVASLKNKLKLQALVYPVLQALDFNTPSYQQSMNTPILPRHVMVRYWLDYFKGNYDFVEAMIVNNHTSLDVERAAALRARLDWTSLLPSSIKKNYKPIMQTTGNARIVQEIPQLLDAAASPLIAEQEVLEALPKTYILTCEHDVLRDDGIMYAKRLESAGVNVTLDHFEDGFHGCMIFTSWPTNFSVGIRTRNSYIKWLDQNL
Description: FIGS. 9A and 9B: Gel-based competitive activity-based protein profiling (ABPP) profiles of several murine membrane proteomes following treatment with fluorine-18-labeled 2-isopropylphenyl-(4-(2-fluoroethoxy)phenethyl)carbamate ([^18F]JW199) with and without 2-isopropylphenyl)-(2-(naphthalen-2-yl)ethyl)carbamate (JW480; 80 milligrams per kilogram (mg/kg)). FIG. 9A is a schematic drawing showing the chemical structure of JW480. FIG. 9B is a composite gel image of the ABPP profiles of the murine membrane proteomes from brain, heart, kidney, lung, liver and spleen following treatment with [^18F]JW199 with or without JW480.
Proteome Preparation: Human PC3 and MDA-MB231 cells were grown in Roswell Park Memorial Institute (RPMI) medium and Dulbecco's Modified Eagle Medium (DMEM), respectively, supplemented with 10% fetal bovine serum (FBS) and 2 mM L-glutamine, and cultured in a humidified 5% CO2 incubator at 37° C. […] Protein concentrations were determined using a Bradford protein assay kit (Bio-Rad, Hercules, California, United States of America)). […]
Gel-based Activity Profiling: Cell lysates were treated with 1 μM fluorophosphonate-rhodamine (FP-rho) for 30 min at room temperature (50 μL total reaction volume). […] Densitometric quantification of band intensities were used to calculate the percent inhibition via JW199. […]

NCEH1 [4] = target: T2, NCEH1; assay: In vivo competition: oral JW480 pre-treatment, then i.v. [18F]JW199 and PET-CT
Procedure: In vivo microPET/CT imaging: All imaging was performed by the Integrated Small Animal Imaging Research Resource (iSAIRR) at the University of Chicago (Chicago, Illinois, United States of America) on a β-Cube and X-Cube (Molecubes NV, Ghent, Belgium). Athymic nude mice (males and females, aged 6 to 8 weeks; HSD strain, Harlan-Envigo, Indianapolis, Indiana, United States of America) were anesthetized via inhalation with 1.5-2% isoflurane and injected with approximately 150 μCi (5.55 Megabecquerel (MBq)) of [^18F]JW199 in 150 μL of physiologic saline through the lateral tail vein, followed by awake incubation for 1 hour and 45 minutes. MicroCT images were acquired using the general purpose protocol, with energy of 50 KeV and a tube current of 100 μA. Respiration rate and body temperature of the animal were constantly monitored during the entire scanning period with the p-Cube and X-Cube onboard monitoring system. A 1 hr dynamic PET acquisition was started 2 hours after [^18F]JW199 injection. Dynamic reconstruction was performed for 6 frames of 10 minutes each using a three-dimensional (3D) OSEM algorithm with 400 μm isometric voxel size. For competition studies, mice were pretreated with either 80 mg/kg JW480 or vehicle (polyethylene glycol 300 (PEG300)) via oral gavage, followed 4 hours later by dosing with [^18F]JW199 and imaging as described. For the MDA-MB231 study, [^18F]JW199 injection was followed immediately by dynamic PET acquisition (90 min) and microCT scanning as detailed above. Dynamic PET image reconstruction included 9 frames of 10 minutes each.
Dynamic reconstruction was performed using a three-dimensional OSEM algorithm with 400 μm isometric voxel size. […] 3D regions of interest (ROIs) were drawn and standardized uptake values (SUVs) and percent injected dose per cubic centimeter of tissue (% ID/cc) were calculated for each ROI and time point. % ID/cc was calculated as a ratio of tissue radioactivity concentration (mCi/g) at time of scan to total injected activity (millicurie (mCi)) at time of scan.

## CC(C)c1ccccc1OC(=O)NCCc1ccc(OCCF)cc1 [JW199, 2-isopropylphenyl-(4-(2-fluoroethoxy)phenethyl)carbamate]
[1]
  selectivity over other detected serine hydrolase targets: > 1,000 fold
NCEH1 [2]; in situ, MDA-MB231 and PC3 cells
  IC50 values, inhibition of NCEH1 in live cells: low nM range

## CC(C)c1ccccc1OC(=O)NCCc1ccc(OCCCF)cc1 [JW245, 2-isopropylphenyl-(4-(3-fluoropropoxy)phenethyl)carbamate]
NCEH1 [2]
  potency against NCEH1 compared to JW199: less potent

## CC(C)c1ccccc1OC(=O)NCCNC(=O)c1ccc2cc(OCCF)ccc2c1 [JW291, 2-isopropylphenyl (2-(6-(2-fluoroethoxy)-2-naphthamido)ethyl)carbamate]
NCEH1 [2]
  potency against NCEH1 compared to JW199: less potent

## CC(C)c1ccccc1OC(=O)NCCc1ccc2ccccc2c1 [JW480, 2-isopropylphenyl-(2-(naphthalen-2-yl)ethyl)carbamate]
NCEH1 [3]
  inhibition of NCEH1 in tissues of pre-treated mice: specific and significant inhibition
NCEH1 [4]; JW480 80 mg/kg oral, 4 hours before tracer
  effect of pre-treatment on radioactivity in urine and brain: slightly elevated radioactivity
NCEH1 [4]; JW480 80 mg/kg oral, 4 hours before tracer, 3 hours post injection
  effect of pre-treatment on [18F]JW199 radiotracer signal in heart, lung and kidney: significantly diminished radiotracer signal
NCEH1 [4]; JW480 oral, then i.v. tracer
  [18F]JW199 accumulation in kidneys and heart of competitor-treated mouse (PET-CT images): visibly decreased
